# Measurements as given in publication PMC6471485, “Selective Inhibitors of a Human Prolyl Hydroxylase (OGFOD1) Involved in Ribosomal Decoding” (Chemistry (Weinheim an Der Bergstrasse, Germany), 2019).
# “Also recorded” adds a separate entry of the source.
# How the values were obtained:
# JARID1B = JARID1B (Homo sapiens, UniProt Q9UGL1); experiment: JARID1B AlphaScreen-based assay; assay type: biochemical
# Description: (§1) reactions were quenched after 4 min. KDM4A inhibition was tested as described previously using a formaldehyde dehydrogenase (FDH) assay.[9] JARID1B and JARID1C inhibition was tested as described previously using reported AlphaScreen-based assays.[10] MINA531-464 and NO66116-641 were cloned into pFB-LIC-Bse, and the N-terminal His-tagged proteins were produced in Sf9 insect cells. The MINA53 peptide substrate Rpl27a […]
# (§2) (Gly31 – Pro49 […]) and the NO66 peptide substrate Rpl8
# (§3) (Asn205 – Thr224 […]) were synthesized by Peptide Protein
# Research Ltd (Fareham, Hampshire, UK) to >95% purity. IC50 determinations were performed in 384-well polypropylene plates (Greiner Bio One, Cat Number 781096), and compound dispenses were performed using an ECHO 550 acoustic dispenser (Labcyte, Sunnyvale, CA).
# NO66 (diluted to 375 nM in 50 mM MES pH 7.0, 150 mM NaCl) and MINA53 (diluted to 187.5 nM in 50 mM HEPES pH 7.5, 50 mM NaCl) were dispensed (40 µL) into 384-well compound plates using a multidrop combi reagent dispenser (Thermo Scientific, Code 5840300) with a small tube plastic tip dispensing cassette (Thermo Scientific, Code 24073290).
# NO66 and MINA53 were pre-incubated with compound for 15 minutes, and the enzyme reaction initiated by dispensing 10 µL of substrate solution [250 µM (NH4)2Fe(SO4)2, 500 µM sodium ascorbate, 25 µM 2OG, 25 µM peptide] in optimized enzyme buffer. […]
# FIH = FIH (Homo sapiens, UniProt Q9NWT6); experiment: FIH assay, MALDI-TOF MS detection of hydroxylation; assay type: biochemical
# FIH, sequence (Q9NWT6 whole entry): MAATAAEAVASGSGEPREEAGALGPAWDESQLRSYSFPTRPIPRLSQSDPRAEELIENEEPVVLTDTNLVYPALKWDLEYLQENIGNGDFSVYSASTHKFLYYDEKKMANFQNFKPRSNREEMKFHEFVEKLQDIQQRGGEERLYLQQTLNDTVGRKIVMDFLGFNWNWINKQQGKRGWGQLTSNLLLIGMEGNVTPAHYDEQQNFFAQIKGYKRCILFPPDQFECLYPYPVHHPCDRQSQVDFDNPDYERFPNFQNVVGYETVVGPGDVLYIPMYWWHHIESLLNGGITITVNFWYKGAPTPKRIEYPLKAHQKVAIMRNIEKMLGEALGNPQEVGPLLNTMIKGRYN
# PHD2181-426 = biological target: T1, PHD2181-426 (Homo sapiens, UniProt Q9GZT9); experiment: wLOGSY NMR binding experiment with PHD2; conditions: 400 µM inhibitor, 50 µM PHD2
# T1 construct: 181-426 (1 µM) was
# T1 sequence (Q9GZT9 181-426 limits assumed): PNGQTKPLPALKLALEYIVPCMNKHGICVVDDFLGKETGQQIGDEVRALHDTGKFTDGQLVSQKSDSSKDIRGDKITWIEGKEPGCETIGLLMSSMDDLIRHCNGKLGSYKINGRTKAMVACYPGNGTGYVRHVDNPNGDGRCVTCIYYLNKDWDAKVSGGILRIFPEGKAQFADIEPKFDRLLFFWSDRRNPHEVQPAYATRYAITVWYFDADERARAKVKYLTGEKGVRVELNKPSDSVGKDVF
# NO66 = biological target: T2, NO66 (Homo sapiens, UniProt Q9H6W3); experiment: NO66 IC50 determination, RapidFire MS; assay type: biochemical
# T2 construct: 116-641 were cloned into pFB-LIC-Bse; His (N); made in house; host or cells: Sf9 insect cells
# T2 sequence (Q9H6W3 116-641 limits assumed): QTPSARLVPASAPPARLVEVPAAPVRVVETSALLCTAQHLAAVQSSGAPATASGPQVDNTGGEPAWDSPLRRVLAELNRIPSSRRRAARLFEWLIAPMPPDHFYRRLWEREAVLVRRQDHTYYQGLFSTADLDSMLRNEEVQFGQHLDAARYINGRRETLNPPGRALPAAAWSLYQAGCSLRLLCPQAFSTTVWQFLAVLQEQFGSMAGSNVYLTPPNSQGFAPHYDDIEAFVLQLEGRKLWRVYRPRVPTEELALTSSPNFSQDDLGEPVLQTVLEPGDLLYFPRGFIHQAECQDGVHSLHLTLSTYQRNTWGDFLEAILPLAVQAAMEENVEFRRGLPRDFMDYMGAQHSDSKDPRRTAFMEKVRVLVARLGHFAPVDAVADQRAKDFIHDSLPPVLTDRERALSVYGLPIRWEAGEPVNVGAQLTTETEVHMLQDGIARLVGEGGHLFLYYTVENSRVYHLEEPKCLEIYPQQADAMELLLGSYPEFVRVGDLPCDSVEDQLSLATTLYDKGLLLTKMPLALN
# Description: as §1, §2, §3
# Research Ltd (Fareham, Hampshire, UK) to >95% purity. IC50 determinations were performed in 384-well polypropylene plates (Greiner Bio One, Cat Number 781096), and compound dispenses were performed using an ECHO 550 acoustic dispenser (Labcyte, Sunnyvale, CA). […]
# RapidFire integrator software (Agilent). Percent conversion was calculated in Excel, and IC50 curves were generated using Prism v. […]
# Assays consisted of enzyme (2 µM), inhibitor (200 µM), MnCl2 (50 µM), and SYPRO Orange (1:5000 dilution), all prepared in 50 mM HEPES, pH 7.5. […] An Opticon thermal cycler (MJ Research Inc) was used to control temperature and measure fluorescence. […]
# CPMG Binding Experiments: Binding of the inhibitors to the proteins was monitored using Carr-Purcell-Meiboom-Gill (CPMG)-edited 1H spectra. […]
# JARID1B, sequence (Q9UGL1 whole entry): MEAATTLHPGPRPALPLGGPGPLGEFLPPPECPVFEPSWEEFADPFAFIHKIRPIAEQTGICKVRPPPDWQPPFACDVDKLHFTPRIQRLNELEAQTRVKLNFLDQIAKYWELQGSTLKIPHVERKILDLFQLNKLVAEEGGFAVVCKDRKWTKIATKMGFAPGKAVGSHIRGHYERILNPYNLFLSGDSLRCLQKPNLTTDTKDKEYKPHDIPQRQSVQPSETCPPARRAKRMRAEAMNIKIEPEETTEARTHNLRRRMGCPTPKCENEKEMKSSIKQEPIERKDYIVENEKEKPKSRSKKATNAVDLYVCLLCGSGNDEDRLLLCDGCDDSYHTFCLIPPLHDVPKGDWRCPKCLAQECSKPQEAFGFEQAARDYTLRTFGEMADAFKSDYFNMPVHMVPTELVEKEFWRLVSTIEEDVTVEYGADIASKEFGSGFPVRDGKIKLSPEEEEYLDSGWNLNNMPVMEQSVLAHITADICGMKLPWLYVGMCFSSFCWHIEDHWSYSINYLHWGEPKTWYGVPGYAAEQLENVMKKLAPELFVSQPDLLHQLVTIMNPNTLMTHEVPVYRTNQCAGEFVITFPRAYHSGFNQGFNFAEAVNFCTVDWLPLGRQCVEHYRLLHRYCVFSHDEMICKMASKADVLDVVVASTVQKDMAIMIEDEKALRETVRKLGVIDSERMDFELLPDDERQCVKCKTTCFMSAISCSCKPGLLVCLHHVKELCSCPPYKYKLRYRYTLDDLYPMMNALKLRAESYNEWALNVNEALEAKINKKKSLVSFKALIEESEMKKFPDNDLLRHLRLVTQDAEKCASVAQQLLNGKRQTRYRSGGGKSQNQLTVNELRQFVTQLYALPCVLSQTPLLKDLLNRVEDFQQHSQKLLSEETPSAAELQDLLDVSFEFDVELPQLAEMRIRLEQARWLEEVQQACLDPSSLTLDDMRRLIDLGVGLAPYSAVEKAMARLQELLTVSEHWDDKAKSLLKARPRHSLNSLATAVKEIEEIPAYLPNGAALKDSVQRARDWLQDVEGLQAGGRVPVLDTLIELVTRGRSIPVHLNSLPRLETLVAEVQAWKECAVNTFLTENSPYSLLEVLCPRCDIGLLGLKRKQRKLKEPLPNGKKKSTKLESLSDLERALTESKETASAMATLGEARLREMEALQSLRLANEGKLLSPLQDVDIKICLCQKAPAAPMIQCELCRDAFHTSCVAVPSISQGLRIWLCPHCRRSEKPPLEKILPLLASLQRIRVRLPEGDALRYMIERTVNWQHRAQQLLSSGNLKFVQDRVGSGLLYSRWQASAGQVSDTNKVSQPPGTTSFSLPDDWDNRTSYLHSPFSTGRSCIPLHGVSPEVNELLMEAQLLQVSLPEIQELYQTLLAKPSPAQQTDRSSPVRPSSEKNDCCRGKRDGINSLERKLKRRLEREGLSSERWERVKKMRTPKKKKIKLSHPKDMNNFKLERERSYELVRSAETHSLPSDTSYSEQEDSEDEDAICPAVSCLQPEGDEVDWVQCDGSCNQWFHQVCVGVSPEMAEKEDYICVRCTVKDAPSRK
Compound,IC50 (JARID1B),IC50 (FIH),"binding to PHD2 by wLOGSY NMR, in words (PHD2181-426; listed as CCT3)",IC50 (NO66),"binding to PHD2 by wLOGSY NMR, in words (PHD2181-426; listed as CCT4)"
Cn1c(O)c(C(=O)CCc2ccccc2)c(=O)n(C)c1=O [compound 26],> 100 µM,> 100 µM,weaker; also recorded: only weak binding to PHD2,> 100 µM,
Cn1c(O)c(C(=O)CCc2cccs2)c(=O)n(C)c1=O [compound 42],> 100 µM,> 100 µM,,> 100 µM,weaker; also recorded: only weak binding to PHD2
